According to ChEMBL document CHEMBL5500356, “Design, synthesis, and biological evaluation of novel benzimidazole derivatives as anti-cervical cancer agents through PI3K/Akt/mTOR pathway and tubulin inhibition” (Eur J Med Chem, 2024):

Tests used:
SiHa = assay: Antiproliferative activity against human SiHa cells assessed as cell viability incubated for 48 hrs by MTT assay; format: functional, cell-based
HeLa = assay: Antiproliferative activity against human HeLa cells assessed as cell viability incubated for 48 hrs by MTT assay; format: functional, cell-based
Ca-Ski = assay: Antiproliferative activity against human Ca-Ski cells assessed as cell viability incubated for 48 hrs by MTT assay; format: functional, cell-based
[1] = Cytotoxicity against human L02 cells assessed as cell viability incubated for 48 hrs by MTT assay; format: toxicity, cell-based
[2] = Cytotoxicity against human HEK293T cells assessed as cell viability incubated for 48 hrs by MTT assay; format: toxicity, cell-based, HEK-293T

Compound	IC50 (HeLa) [µM]	IC50 (SiHa) [µM]	IC50 (Ca-Ski) [µM]	IC50 at 48 h [1] [µM]	IC50 at 48 h [2] [µM]
COc1cc(-c2nc3cc(N4CCOCC4)c(/C=C/C(=O)N(C)C)cc3[nH]2)cc(OC)c1OC	14.5	> 100	48.5	> 100	2.53
COc1cc(-c2nc3cc(N4CCOCC4)c(C#Cc4ccc(Cl)cc4)cc3[nH]2)cc(OC)c1OC	3.23	20.9	14.4	12.8	15.9
COc1cc(-c2nc3cc(N4CCOCC4)c(C#Cc4ccccc4Cl)cc3[nH]2)cc(OC)c1OC	10.4	7.81	13.5	> 100	5.37
COc1cc(OC)c(-c2nc3cc(N4CCOCC4)c(C#Cc4ccccc4)cc3[nH]2)cc1OC	19.3	25.1	19.5	34.1	13.2
COc1cc(OC)c(-c2nc3cc(N4CCN(C)CC4)c(C#Cc4ccc(Cl)cc4)cc3[nH]2)cc1OC	1.61	3.03	> 100	1.38	1.64
COc1cc(OC)c(-c2nc3cc(N4CCN(C)CC4)c(C#Cc4ccccc4Cl)cc3[nH]2)cc1OC	2.96	6.07	5.34	2.04	4.55

More lines, in order of falling IC50 (HeLa), values ahead:

IC50 (HeLa) [µM]	Compound	IC50 (SiHa) [µM]	IC50 (Ca-Ski) [µM]	IC50 at 48 h [1] [µM]	IC50 at 48 h [2] [µM]
16.9	COc1cc(OC)c(-c2nc3cc(N4CCOCC4)c(C#Cc4ccccc4Cl)cc3[nH]2)cc1OC	24.4	22.5	18.9	0.68
8.6	COc1cc(-c2nc3cc(N4CCOCC4)c(C#Cc4ccccc4F)cc3[nH]2)cc(OC)c1OC	> 100	10.7	6.98	38.6
5.25	COc1cc(OC)c(-c2nc3cc(N4CCN(C)CC4)c(C#Cc4ccccc4)cc3[nH]2)cc1OC	6.16	> 100	6.59	4.07
4.21	COc1cc(-c2nc3cc(N4CCOCC4)c(/C=C/C(=O)NC(C)(C)C)cc3[nH]2)cc(OC)c1OC	17	16	9.92	11.7
3.13	COc1cc(-c2nc3cc(N4CCN(C)CC4)c(C#Cc4ccc(C(F)(F)F)cc4)cc3[nH]2)cc(OC)c1OC	6.54	1.38	2.3	1.41
